# Experimental data taken from US20150065416A1, “NOVEL DRUG COMBINATION” (FAB PHARMA SAS, priority 2013, published 2015).
# Read-outs that look alike come from different tables or passages of the source.
# Experiments:
# A. baumannii SAN strain = assay: Bactericidal activity (time kill kinetics, Example 5); format: cell-based, Acinetobacter baumannii; conditions: alone at 2×MIC
# Experimental: In addition, a second set of experiments involved the testing of compound(I)/additional antibacterial agent combinations of 2×/2×MIC. Samples were taken at 0, 3, 6 and 24 hours in order to determine colony forming units (CFU/mL).
# A. baumannii SAN-94040 = assay: Additional mouse model of A. baumannii pneumonia (Example 7): survival; format: in vivo, Acinetobacter baumannii
# Experimental: The bacterial inoculum was prepared in order to obtain a suspension containing 10^8 CFU/mL of Acinetobacter baumannii in saline, unless indicated otherwise.
# Experimentations were performed with six-week old female C3H/HeN mice (18-20 g, Harlan Laboratories) because of their particular susceptibility to Acinetobacter baumannii. Each mouse was individually marked and housed in cages containing five animals/cage under ventilated and controlled (temperature and humidity) atmosphere.
# The mice were rendered transiently neutropenic by 2 intra-peritoneal (IP) injections of 150 μL of cyclophosphamide (150 mg/kg) 4 (D-4) and 3 (D-3) days before the Acinetobacter baumannii inoculation (Day 0).
# Mice were infected with 50 μL the prepared bacterial suspension (inoculums depending on experiment) via intra-tracheal inoculation of mouse. In the study, three animals (Group 1) were sacrificed after inoculation to determine bacterial burden in lungs at the time of infection. Lungs were aseptically removed, weighed and homogenized in 1 mL of 0.9% NaCl. Homogenates were serially diluted and plated on TSA agar. Plates were incubated overnight at 37° C. in 5% CO2. Following incubation, colonies were counted for bacterial growth.
# Animal survival was assessed every day for 7 days. Survival data were tabulated and a Probit analysis performed to determine the 50% protective dose (PD50) for each group.
# The aim of this experiment was to assess the survival rate of transiently neutropenic female C3H/HeN mice administered, 3 hours post-inoculation of A. baumannii SAN-94040 via intra-tracheal route, with compound (I) via intra-peritoneal route at 200 mg/kg 3 times daily (every 8 hours) for 1 day alone and in combination with meropenem at 30 mg/kg 3 times daily (every 8 hours) for 1 day.
# A. baumannii isolates [1] = assay: Time kill study (Example 4); format: cell-based, Acinetobacter baumannii; conditions: for Time to kill 99.9%: alone; for MIC: Acinetobacter baumannii, read-out: MIC
# Experimental: A total of 12 isolates were tested (three per sub-group either susceptible, meropenem-resistant, amikacin-resistant or colistin-resistant). Two combinations were tested per isolate. Time-kill kinetics were performed by testing compound (I) and an additional antibacterial agent (amikacin, colistin and meropenem) individually at 1× and 4× the corresponding MIC of each antibacterial agent. […] Samples were taken at 0, 2, 4, 8 and 24 hours in order to determine colony forming units (CFU/mL).
# Time-kill studies were carried out as described in General Procedures using combinations of compound (I) with amikacin, meropenem and colistin, respectively.
# A. baumannii isolates [2] = assay: Individual antimicrobial susceptibility testing (MIC, broth microdilution, CLSI); format: cell-based, Acinetobacter baumannii; conditions: for MIC50 / MIC90: Acinetobacter baumannii
# Experimental: In the antimicrobial susceptibility testing 77 isolates of A. baumannii (from 2010) in the following sub-groups were tested: • 22 isolates generally susceptible to antimicrobial agents (“Sus”) • 20 carbapenem-resistant isolates (e.g. “MPM-R”) • 20 aminoglycoside-resistant isolates (e.g. “AMK-R”) • 15 colistin-resistant isolates. (e.g. “COL-R”)
# Minimum inhibitory concentration (MIC) endpoints were determined by broth microdilution according to CLSI guidelines (CLSI, M7-A8 & M100-S22, 2012). Panels were prepared at IHMA using cation-adjusted Mueller-Hinton broth. Colonies were taken directly from a second-pass culture plate and prepared to a suspension equivalent of the 0.5 McFarland standard using normal saline.
# Testing was carried out as described in the General Procedures to determine minimum inhibitory concentration (MIC) end points for compound (I), amikacin, colistin, gentamicin, meropenem and tobramycin, for 77 A. baumannii isolates. Under the “MIC (μg/ml)” heading, the first column (Range) indicates the MIC end points for the particular number (N) of isolates tested, the second column (50%) provides an estimate of the concentration that inhibits 50% (MIC50) of bacterial isolates tested, and the third column (90%) provides an estimate of the concentration that inhibits 90% of the bacterial isolates tested.
# [3] = Example 7, 48 h after infection, doses as E246
# [4] = Example 7, 72 h after infection, doses as E246
# [5] = Example 7, 96 h after infection, doses as E246
# [6] = Amikacin-resistant isolates, N=20
# [7] = Colistin-resistant isolates, N=15
# [8] = Meropenem-resistant isolates, N=20
smiles,measurement,setting,value
C[C@@H](O)[C@H]1C(=O)N2C(C(=O)O)=C(S[C@@H]3CN[C@H](C(=O)N(C)C)C3)[C@H](C)[C@H]12 [meropenem],effect in time-kill study when tested alone,A. baumannii SAN strain,bactericidal
same,No. of survivors,"A. baumannii SAN-94040; Example 7, 24 h after SAN-94040 infection, compound (I) 200 mg/kg, meropenem 30 mg/kg, colistin 125000 UI/kg Q8h I.P. for 1 day",10
same,survivors (%),"A. baumannii SAN-94040; Example 7, 24 h after infection, doses as E246",100%
same,No. of survivors,A. baumannii SAN-94040; [3],10
same,survivors (%),A. baumannii SAN-94040; [3],100%
same,No. of survivors,A. baumannii SAN-94040; [4],10
same,survivors (%),A. baumannii SAN-94040; [4],100%
same,No. of survivors,A. baumannii SAN-94040; [5],10
same,survivors (%),A. baumannii SAN-94040; [5],100%
same,Time to kill 99.9%,"A. baumannii isolates [1]; AMK-R-1, 1xMIC",5.2 h
same,Time to kill 99.9%,"A. baumannii isolates [1]; AMK-R-1, 4xMIC",3.2 h
same,Time to kill 99.9%,"A. baumannii isolates [1]; AMK-R-2, 1xMIC",>24 h
same,Time to kill 99.9%,"A. baumannii isolates [1]; AMK-R-2, 4xMIC",6.1 h
same,Time to kill 99.9%,"A. baumannii isolates [1]; AMK-R-3, 1xMIC",3.6 h
same,Time to kill 99.9%,"A. baumannii isolates [1]; AMK-R-3, 4xMIC",1.8 h
same,MIC,A. baumannii isolates [1]; isolate AMK-R-1,4 µg/mL
same,MIC,A. baumannii isolates [1]; isolate AMK-R-2,16 µg/mL
same,MIC,A. baumannii isolates [1]; isolate AMK-R-3,16 µg/mL
same,MIC,A. baumannii isolates [1]; isolate COL-R-1,64 µg/mL
same,MIC,A. baumannii isolates [1]; isolate COL-R-2,0.25 µg/mL
same,MIC,A. baumannii isolates [1]; isolate COL-R-3,16 µg/mL
same,Time to kill 99.9%,"A. baumannii isolates [1]; COL-R-1, 1xMIC",3.6 h
same,Time to kill 99.9%,"A. baumannii isolates [1]; COL-R-1, 4xMIC",3.6 h
same,Time to kill 99.9%,"A. baumannii isolates [1]; COL-R-2, 1xMIC",>24 h
same,Time to kill 99.9%,"A. baumannii isolates [1]; COL-R-2, 4xMIC",5.8 h
same,Time to kill 99.9%,"A. baumannii isolates [1]; COL-R-3, 1xMIC",>24 h
same,Time to kill 99.9%,"A. baumannii isolates [1]; COL-R-3, 4xMIC",3.2 h
same,effect in time-kill studies when tested alone,A. baumannii isolates [1]; alone at 1× or 4×MIC,generally bactericidal
same,MIC50,"A. baumannii isolates [2]; All isolates, N=77",4 µg/mL
same,MIC90,"A. baumannii isolates [2]; All isolates, N=77",> 32 µg/mL
same,MIC50,A. baumannii isolates [2]; [6],2 µg/mL
same,MIC90,A. baumannii isolates [2]; [6],16 µg/mL
same,MIC50,A. baumannii isolates [2]; [7],32 µg/mL
same,MIC90,A. baumannii isolates [2]; [7],> 32 µg/mL
same,MIC50,A. baumannii isolates [2]; [8],> 32 µg/mL
same,MIC90,A. baumannii isolates [2]; [8],> 32 µg/mL
same,MIC50,"A. baumannii isolates [2]; Susceptible isolates, N=22",0.25 µg/mL
same,MIC90,"A. baumannii isolates [2]; Susceptible isolates, N=22",2 µg/mL
same,MIC Range,A. baumannii isolates [2]; [6],0.5 to 32 µg/mL
same,MIC Range,"A. baumannii isolates [2]; Susceptible isolates, N=22",0.06 to 4 µg/mL
